Reference: the supplement of paper PMC10307832

Columns and labels:
Test in all cases: relative viability (nuclei count vs DMSO), 5 days (fraction); higher = more cells survive
[1] = system: BEN
Outline: (§1)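 Relative viability divides the nuclei count in treated wells by that in vehicle wells. Lung cancer cell lines were seeded in 1536-well plates, dosed by pin tool the next day, and fixed and stained after 5 days in one step with final 0.05% Triton X-100, 1% formaldehyde and 1 ug/ml Hoechst. Dosing was a single drug or a fixed anchor-drug dose plus five library-drug doses (not always all listed) in √10 steps, and values are medians of duplicate plates imaged at 4×.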

[2] = system: COR-L 105
Outline: as §1

[3] = system: EKVX
Outline: as §1

[4] = system: EMC-BAC-2
Outline: as §1

[5] = system: EPLC-272H
Outline: as §1

[6] = system: HCC-78
Outline: as §1

[7] = system: HCC-827
Outline: as §1

[8] = system: LK-2
Outline: as §1

[9] = system: LOU-NH91
Outline: as §1

[10] = system: LU99A
Outline: as §1

[11] = system: NCI-H1437
Outline: as §1

[12] = system: NCI-H1648
Outline: as §1

[13] = system: NCI-H1650
Outline: as §1

[14] = system: NCI-H1734
Outline: as §1

[15] = system: NCI-H1792
Outline: as §1

[16] = system: NCI-H2023
Outline: as §1

[17] = system: NCI-H2085
Outline: as §1

[18] = system: NCI-H358
Outline: as §1

[19] = system: NCI-H522
Outline: as §1

[20] = system: NCI-H647
Outline: as §1

[21] = system: NCI-H650
Outline: as §1

[22] = system: SK-LU-1
Outline: as §1

[23] = system: SW 900
Outline: as §1

[24] = system: UMC-11
Outline: as §1

SMILES: Oc1nc(-c2ccc(C(F)(F)F)cc2)nc2c1CSCC2 [XAV939] + Nc1nc2[nH]cc(CCc3ccc(C(=O)N[C@@H](CCC(=O)O)C(=O)O)cc3)c2c(=O)[nH]1 [Pemetrexed] (partner 0.2 µM)
- relative viability ([1]; first compound 0.08 µM): 0.651
- relative viability ([1]; first compound 0.253 µM): 0.727
- relative viability ([1]; first compound 0.8 µM): 0.817
- relative viability ([1]; first compound 2.53 µM): 0.731
- relative viability ([2]; first compound 0.08 µM): 1.09
- relative viability ([2]; first compound 0.253 µM): 0.916
- relative viability ([2]; first compound 0.8 µM): 1.03
- relative viability ([2]; first compound 2.53 µM): 0.875
- relative viability ([3]; first compound 0.08 µM): 0.443
- relative viability ([3]; first compound 0.253 µM): 0.326
- relative viability ([3]; first compound 0.8 µM): 0.266
- relative viability ([3]; first compound 2.53 µM): 0.303
- relative viability ([4]; first compound 0.08 µM): 0.454
- relative viability ([4]; first compound 0.253 µM): 0.399
- relative viability ([4]; first compound 0.8 µM): 0.412
- relative viability ([4]; first compound 2.53 µM): 0.344
- relative viability ([5]; first compound 0.08 µM): 0.312
- relative viability ([5]; first compound 0.253 µM): 0.238
- relative viability ([5]; first compound 0.8 µM): 0.511
- relative viability ([5]; first compound 2.53 µM): 0.308
- relative viability ([6]; first compound 0.08 µM): 0.881
- relative viability ([6]; first compound 0.253 µM): 0.829
- relative viability ([6]; first compound 0.8 µM): 0.846
- relative viability ([6]; first compound 2.53 µM): 0.942
- relative viability ([7]; first compound 0.08 µM): 0.275
- relative viability ([7]; first compound 0.253 µM): 0.268
- relative viability ([7]; first compound 0.8 µM): 0.254
- relative viability ([7]; first compound 2.53 µM): 0.245
- relative viability ([8]; first compound 0.08 µM): 0.291
- relative viability ([8]; first compound 0.253 µM): 0.281
- relative viability ([8]; first compound 0.8 µM): 0.236
- relative viability ([8]; first compound 2.53 µM): 0.229
- relative viability ([9]; first compound 0.08 µM): 0.461
- relative viability ([9]; first compound 0.253 µM): 0.359
- relative viability ([9]; first compound 0.8 µM): 0.391
- relative viability ([9]; first compound 2.53 µM): 0.349
- relative viability ([10]; first compound 0.08 µM): 0.19
- relative viability ([10]; first compound 0.253 µM): 0.167
- relative viability ([10]; first compound 0.8 µM): 0.184
- relative viability ([10]; first compound 2.53 µM): 0.181
- relative viability ([11]; first compound 0.08 µM): 0.294
- relative viability ([11]; first compound 0.253 µM): 0.272
- relative viability ([11]; first compound 0.8 µM): 0.326
- relative viability ([11]; first compound 2.53 µM): 0.276
- relative viability ([12]; first compound 0.253 µM): 0.701
- relative viability ([12]; first compound 0.8 µM): 0.667
- relative viability ([12]; first compound 2.53 µM): 0.722
- relative viability ([13]; first compound 0.08 µM): 0.368
- relative viability ([13]; first compound 0.253 µM): 0.301
- relative viability ([13]; first compound 0.8 µM): 0.356
- relative viability ([13]; first compound 2.53 µM): 0.365
- relative viability ([14]; first compound 0.08 µM): 0.444
- relative viability ([14]; first compound 0.253 µM): 0.405
- relative viability ([14]; first compound 0.8 µM): 0.417
- relative viability ([14]; first compound 2.53 µM): 0.392
- relative viability ([15]; first compound 0.08 µM): 0.967
- relative viability ([15]; first compound 0.253 µM): 0.726
- relative viability ([15]; first compound 0.8 µM): 0.813
- relative viability ([15]; first compound 2.53 µM): 0.72
- relative viability ([16]; first compound 0.08 µM): 0.279
- relative viability ([16]; first compound 0.253 µM): 0.197
- relative viability ([16]; first compound 0.8 µM): 0.208
- relative viability ([16]; first compound 2.53 µM): 0.199
- relative viability ([17]; first compound 0.08 µM): 1.02
- relative viability ([17]; first compound 0.253 µM): 0.801
- relative viability ([17]; first compound 0.8 µM): 0.878
- relative viability ([17]; first compound 2.53 µM): 0.837
- relative viability ([18]; first compound 0.08 µM): 0.168
- relative viability ([18]; first compound 0.253 µM): 0.162
- relative viability ([18]; first compound 0.8 µM): 0.165
- relative viability ([18]; first compound 2.53 µM): 0.171
- relative viability ([19]; first compound 0.08 µM): 1.04
- relative viability ([19]; first compound 0.253 µM): 0.88
- relative viability ([19]; first compound 0.8 µM): 0.964
- relative viability ([19]; first compound 2.53 µM): 0.985
- relative viability ([20]; first compound 0.08 µM): 0.168
- relative viability ([20]; first compound 0.253 µM): 0.179
- relative viability ([20]; first compound 0.8 µM): 0.166
- relative viability ([20]; first compound 2.53 µM): 0.146
- relative viability ([21]; first compound 0.08 µM): 0.973
- relative viability ([21]; first compound 0.253 µM): 1
- relative viability ([21]; first compound 0.8 µM): 0.96
- relative viability ([21]; first compound 2.53 µM): 0.816
- relative viability ([22]; first compound 0.08 µM): 1.05
- relative viability ([22]; first compound 0.253 µM): 1
- relative viability ([22]; first compound 0.8 µM): 1.1
- relative viability ([22]; first compound 2.53 µM): 0.947
- relative viability ([23]; first compound 0.253 µM): 0.45
- relative viability ([23]; first compound 0.8 µM): 0.483
- relative viability ([23]; first compound 2.53 µM): 0.42
- relative viability ([24]; first compound 0.08 µM): 0.893
- relative viability ([24]; first compound 0.253 µM): 0.635
- relative viability ([24]; first compound 0.8 µM): 0.731
- relative viability ([24]; first compound 2.53 µM): 0.636
